What all share (assay type): functional, organism-based
Experiment [1] deals with Cavia porcellus. In words: Luteolytic activity was determined in guinea pigs after injected for 3 days subcutaneously (22-24 postmating days); IA- Inactive.
Experiment [2] relates to Cavia porcellus. In words: Luteolytic activity was determined in guinea pigs administered intraperitoneally as a single dose on day 22 postmating days; IA- Inactive.
The subject of experiment [3] is Cavia porcellus. Description: Luteolytic activity was determined in guinea pigs after injected for 3 days subcutaneously (12-14 postmating days); IA- Inactive.
Experiment [4] has as its system Cavia porcellus. Description: Postcoital antifertility activity was determined in guinea pigs after injected for 3 days subcutaneously (12-14 postmating days); IA- Inactive.
For experiment [5], the system named is Cavia porcellus. In words: Postcoital antifertility was determined in guinea pigs administered intraperitoneally as a single dose on day 22 postmating days; IA- Inactive.
Experiment [6] relates to Cavia porcellus. In words: Postcoital antifertility was determined in guinea pigs after injected for 3 days subcutaneously (22-24 postmating days); IA- Inactive.
Experiment [7] deals with Cavia porcellus. In words: Pregnancy was determined in guinea pigs after sc administration of 40 or 50 mg per guinea pig on 12-14 postmating days (n=5); NA- No apparent effect.
In experiment [8] the test system is Cavia porcellus. In words: Pregnancy was determined in guinea pigs after sc administration of 50 or 75 mg per guinea pig on 22-24 postmating days (n=5); NA- No apparent effect.
Experiment [9] is filed under the species Cavia porcellus. In words: Pregnancy was determined in guinea pigs after a single dose of 24 mg per guinea pig (n=1 or 2); NE- No effect.
For experiment [10], the species on record is Cavia porcellus. In words: Pregnancy was determined in guinea pigs after a single dose of 40 mg per guinea pig (n=1 or 2); NE- No effect.
In experiment [11] the test system is Cavia porcellus. In words: Effect in guinea pigs at a dose of 60 mg/kg of body weight; A- Partially active. Also on record: dose 60 mg/kg.
For experiment [12], the system named is Cavia porcellus. In words: Effect in guinea pigs at a dose of 80 mg/kg of body weight; A- Partially active. Further details: dose 80 mg/kg.
Experiment [13] concerns Cavia porcellus. In words: Effect on the resorption of implantation sites in guinea pigs at 100 mg/kg administered intraperitoneally; E- Fully effective. Further details: dose 100 mg/kg.

The values below come from ChEMBL document CHEMBL1122294, “Synthesis and biological activity of zoapatanol analogues” (J Med Chem, 1983).

Calls of active or inactive are those of the source. The rule behind the calls is not given here.

`COC(=O)C(C)CCC[C@]1(C)COC(CO)CO1` (some centres undefined): the outcome with Cavia porcellus [1], in the experiment on Cavia porcellus [2], in the experiment on Cavia porcellus [3], with Cavia porcellus [4], in the experiment with Cavia porcellus [5] and in the experiment on Cavia porcellus [6] was inactive. Moreover, the result with Cavia porcellus [7] and with Cavia porcellus [8] was inactive.

Consider `CC(C)=CCC(=O)C(C)CCCC1(C)COC(CO)CO1` (centres undefined), for which the result with Cavia porcellus [1], in the experiment on Cavia porcellus [2], in the experiment with Cavia porcellus [3], in the experiment with Cavia porcellus [4], in the experiment on Cavia porcellus [5] and in the experiment with Cavia porcellus [6] was inactive.

For the compound `COC(=O)C(C)CCC[C@@]1(C)COC(CO)CO1` (some centres undefined), the outcome in the experiment with Cavia porcellus [1], in the experiment with Cavia porcellus [2], with Cavia porcellus [3], in the experiment on Cavia porcellus [4], in the experiment with Cavia porcellus [5] and with Cavia porcellus [6] was inactive. Besides, the result in the experiment with Cavia porcellus [7] and with Cavia porcellus [8] was inactive.

In the case of `CC(C)/C=C/C(=O)C(C)CCCC1(C)COC(CC(=O)O)CO1` (centres undefined), the outcome with Cavia porcellus [1], in the experiment with Cavia porcellus [2], in the experiment on Cavia porcellus [3], in the experiment on Cavia porcellus [4], in the experiment with Cavia porcellus [5] and with Cavia porcellus [6] was inactive. The outcome in the experiment listed under Cavia porcellus [9] and in the experiment filed under Cavia porcellus [10] was inactive.

With `CC(C)=CCC(=O)C(C)CCCC1(C)COC(CC(=O)O)CO1` (centres undefined), the result with Cavia porcellus [1], in the experiment with Cavia porcellus [2], with Cavia porcellus [3], in the experiment on Cavia porcellus [4], with Cavia porcellus [5] and in the experiment with Cavia porcellus [6] was inactive.

`CC(C)=CCC(=O)C(C)CCCC1(C)OC/C(=C/CO)CCC1O` (centres undefined): the results for the Activity result in the experiment on Cavia porcellus [11], in the experiment with Cavia porcellus [12] and with Cavia porcellus [13] were “Weak activity”, “Weak activity” and “Fully effective”, respectively.
